From US11104671B2, “Insecticidal compounds” (SYNGENTA PARTICIPATIONS AG, priority 2017, dated 2021)
Like-named read-outs stand apart in the source and are kept apart here.

Assays:
Type in all cases: in vivo
[1] = tested on: Diabrotica balteata; assay: Diabrotica balteata (corn root worm), maize sprouts sprayed, L2 larvae; settings: 96 h, read-out: effect in at least one of the two categories (mortality or growth inhibition); for percent effect (mortality or growth inhibition) at 200 ppm: application rate 200 ppm, 4 days after infestation, L2 larvae
Procedure: Diabrotica Balteata (Corn Root Worm)
Maize sprouts placed onto an agar layer in 24-well microtiter plates were treated with aqueous test solutions prepared from 10,000 ppm DMSO stock solutions by spraying. After drying, the plates were infested with L2 larvae (6 to 10 per well). The samples were assessed for mortality and growth inhibition in comparison to untreated samples 4 days after infestation.

[2] = tested on: Euschistus heros; assay: Euschistus heros (neotropical brown stink bug), soybean leaves sprayed, N2 nymphs; settings: 120 h, read-out: effect in at least one of the two categories (mortality or growth inhibition); for percent effect (mortality or growth inhibition) at 200 ppm: application rate 200 ppm, 5 days after infestation, N2 nymphs
Procedure: Euschistus heros (Neotropical Brown Stink Bug)
Soybean leaves on agar in 24-well microtiter plates were sprayed with aqueous test solutions prepared from 10,000 ppm DMSO stock solutions. After drying the leaves were infested with N2 nymphs. The samples were assessed for mortality and growth inhibition in comparison to untreated samples 5 days after infestation.

[3] = tested on: Myzus persicae; assay: Myzus persicae (green peach aphid), intrinsic activity; settings: 120 h
From the text: Myzus persicae (Green Peach Aphid). Intrinsic Activity
Test compounds prepared from 10,000 ppm DMSO stock solutions were applied by pipette into 24-well microtiter plates and mixed with sucrose solution. The plates were closed with a stretched Parafilm. A plastic stencil with 24 holes was placed onto the plate and infested pea seedlings were placed directly on the Parafilm. The infested plate was closed with a gel blotting paper and another plastic stencil and then turned upside down. The samples were assessed for mortality 5 days after infestation.

[4] = tested on: Myzus persicae; assay: Myzus persicae (green peach aphid), feeding/contact activity; settings: foliar, 144 h
Procedure: Myzus persicae (Green Peach Aphid): Feeding/Contact Activity
Sunflower leaf discs were placed onto agar in a 24-well microtiter plate and sprayed with aqueous test solutions prepared from 10,000 ppm DMSO stock solutions. After drying, the leaf discs were infested with an aphid population of mixed ages. The samples were assessed for mortality 6 days after infestation.

[5] = tested on: Plutella xylostella; assay: Plutella xylostella (diamond back moth), artificial diet, L2 larvae; settings: 120 h, read-out: effect in at least one of the two categories (mortality or growth inhibition); for percent effect (mortality or growth inhibition) at 200 ppm: application rate 200 ppm, 5 days after infestation, L2 larvae
Procedure: Plutella xylostella (Diamond Back Moth)
24-well microtiter plates with artificial diet were treated with aqueous test solutions prepared from 10,000 ppm DMSO stock solutions by pipetting. After drying, the plates were infested with L2 larvae (10 to 15 per well). The samples were assessed for mortality and growth inhibition in comparison to untreated samples 5 days after infestation.

[6] = tested on: Spodoptera littoralis; assay: Spodoptera littoralis (Egyptian cotton leaf worm), cotton leaf discs, L1 larvae; settings: foliar, 72 h, read-out: control (mortality, anti-feedant effect or growth inhibition)
Procedure: Spodoptera littoralis (Egyptian Cotton Leaf Worm)
Cotton leaf discs were placed onto agar in 24-well microtiter plates and sprayed with aqueous test solutions prepared from 10,000 ppm DMSO stock solutions. After drying the leaf discs were infested with five L1 larvae. The samples were assessed for mortality, anti-feeding effect, and growth inhibition in comparison to untreated samples 3 days after infestation. Control of Spodoptera littoralis by a test sample is given when at least one of the categories mortality, anti-feedant effect, and growth inhibition is higher than the untreated sample.

[7] = tested on: Tetranychus urticae; assay: Tetranychus urticae (two-spotted spider mite), feeding/contact activity; settings: foliar, 192 h, read-out: mortality on mixed population (mobile stages)
Procedure: Tetranychus urticae (Two-Spotted Spider Mite): Feeding/Contact Activity
Bean leaf discs on agar in 24-well microtiter plates were sprayed with aqueous test solutions prepared from 10,000 ppm DMSO stock solutions. After drying the leaf discs were infested with a mite population of mixed ages. The samples were assessed for mortality on mixed population (mobile stages) 8 days after infestation.

[8] = tested on: Thrips tabaci; assay: Thrips tabaci (onion thrips), feeding/contact activity; settings: foliar, 144 h
Procedure: Thrips tabaci (Onion thrips) Feeding/Contact Activity
Sunflower leaf discs were placed on agar in 24-well microtiter plates and sprayed with aqueous test solutions prepared from 10,000 ppm DMSO stock solutions. After drying the leaf discs were infested with a thrips population of mixed ages. The samples were assessed for mortality 6 days after infestation.

[9] = test rate 12 ppm, 5 days after infestation, sucrose solution, infested pea seedlings, read-out: mortality
[10] = application rate 200 ppm, 6 days after infestation, sunflower leaf discs, mixed ages, read-out: mortality
[11] = application rate 200 ppm, 3 days after infestation, L1 larvae
[12] = application rate 200 ppm, 8 days after infestation, bean leaf discs

Cc1cc(C2=NO[C@](c3cc(Cl)cc(Cl)c3)(C(F)(F)F)[C@H]2Cl)ccc1C(=O)NC1CON(S(C)(=O)=O)C1 (stereo partly drawn) [Compound A4, 4-[(4S,5R)-4-chloro-5-(3,5-dichlorophenyl)-5-(trifluoromethyl)-4H-isoxazol-3-yl]-2-methyl-N-(2-methylsulfonylisoxazolidin-4-yl)benzamide]
≥ 80%: percent control (mortality or growth inhibition) at 200 ppm [1] | percent control (mortality or growth inhibition) at 200 ppm [2] | mortality at 12 ppm [3] | mortality at 200 ppm [4] | percent control (mortality or growth inhibition) at 200 ppm [5] | percent control (mortality, anti-feedant effect or growth inhibition) at 200 ppm [6] | mortality at 200 ppm [7] | mortality at 200 ppm [8]

Cc1cc(C2=NCC(c3cc(Cl)cc(Cl)c3)(C(F)(F)F)C2)ccc1C(=O)NC1CON(S(C)(=O)=O)C1 (centres unmarked) [Compound A5, 4-[3-(3,5-dichlorophenyl)-3-(trifluoromethyl)-2,4-dihydropyrrol-5-yl]-2-methyl-N-(2-methylsulfonylisoxazolidin-4-yl)benzamide]
≥ 80%: percent effect (mortality or growth inhibition) at 200 ppm [1] | percent effect (mortality or growth inhibition) at 200 ppm [2] | mortality at 12 ppm [3, 9] | mortality at 200 ppm [4, 10] | percent effect (mortality or growth inhibition) at 200 ppm [5] | percent control (mortality, anti-feedant effect or growth inhibition) at 200 ppm [6, 11] | mortality at 200 ppm [7, 12] | mortality at 200 ppm [8, 10]

Cc1cc(C2=NCC(c3cc(Cl)c(Cl)c(Cl)c3)(C(F)(F)F)C2)ccc1C(=O)NC1CON(S(C)(=O)=O)C1 (centres unmarked) [Compound A8, 2-methyl-N-(2-methylsulfonylisoxazolidin-4-yl)-4-[3-(3,4,5-trichlorophenyl)-3-(trifluoromethyl)-2,4-dihydropyrrol-5-yl]benzamide]
≥ 80%: percent effect (mortality or growth inhibition) at 200 ppm [1] | percent effect (mortality or growth inhibition) at 200 ppm [2] | mortality at 12 ppm [3, 9] | mortality at 200 ppm [4, 10] | percent effect (mortality or growth inhibition) at 200 ppm [5] | percent control (mortality, anti-feedant effect or growth inhibition) at 200 ppm [6, 11] | mortality at 200 ppm [7, 12] | mortality at 200 ppm [8, 10]

Cc1cc(C2=NCC(c3cc(Cl)c(F)c(Cl)c3)(C(F)(F)F)C2)ccc1C(=O)NC1CON(S(C)(=O)=O)C1 (centres unmarked) [Compound A7, 4-[3-(3,5-dichloro-4-fluoro-phenyl)-3-(trifluoromethyl)-2,4-dihydropyrrol-5-yl]-2-methyl-N-(2-methylsulfonylisoxazolidin-4-yl)benzamide]
≥ 80%: percent effect (mortality or growth inhibition) at 200 ppm [1] | percent effect (mortality or growth inhibition) at 200 ppm [2] | mortality at 12 ppm [3, 9] | mortality at 200 ppm [4, 10] | percent effect (mortality or growth inhibition) at 200 ppm [5] | percent control (mortality, anti-feedant effect or growth inhibition) at 200 ppm [6, 11] | mortality at 200 ppm [7, 12] | mortality at 200 ppm [8, 10]
